Assay results reported in patent US20020137209A1, “Methods of dissociating nongenotropic from genotropic activity of steroid receptors” (priority 2000, published 2002).
Ends that are not written are not given here.

What was measured:
[1] = system: calvaria-derived murine osteoblastic cells; assay: Apoptosis of calvaria-derived osteoblastic cells (trypan blue)
AR = molecular target: T1, AR (Homo sapiens, UniProt P10275); assay: Etoposide-induced apoptosis in HeLa cells transfected with AR
T1 sequence (P10275 1-920): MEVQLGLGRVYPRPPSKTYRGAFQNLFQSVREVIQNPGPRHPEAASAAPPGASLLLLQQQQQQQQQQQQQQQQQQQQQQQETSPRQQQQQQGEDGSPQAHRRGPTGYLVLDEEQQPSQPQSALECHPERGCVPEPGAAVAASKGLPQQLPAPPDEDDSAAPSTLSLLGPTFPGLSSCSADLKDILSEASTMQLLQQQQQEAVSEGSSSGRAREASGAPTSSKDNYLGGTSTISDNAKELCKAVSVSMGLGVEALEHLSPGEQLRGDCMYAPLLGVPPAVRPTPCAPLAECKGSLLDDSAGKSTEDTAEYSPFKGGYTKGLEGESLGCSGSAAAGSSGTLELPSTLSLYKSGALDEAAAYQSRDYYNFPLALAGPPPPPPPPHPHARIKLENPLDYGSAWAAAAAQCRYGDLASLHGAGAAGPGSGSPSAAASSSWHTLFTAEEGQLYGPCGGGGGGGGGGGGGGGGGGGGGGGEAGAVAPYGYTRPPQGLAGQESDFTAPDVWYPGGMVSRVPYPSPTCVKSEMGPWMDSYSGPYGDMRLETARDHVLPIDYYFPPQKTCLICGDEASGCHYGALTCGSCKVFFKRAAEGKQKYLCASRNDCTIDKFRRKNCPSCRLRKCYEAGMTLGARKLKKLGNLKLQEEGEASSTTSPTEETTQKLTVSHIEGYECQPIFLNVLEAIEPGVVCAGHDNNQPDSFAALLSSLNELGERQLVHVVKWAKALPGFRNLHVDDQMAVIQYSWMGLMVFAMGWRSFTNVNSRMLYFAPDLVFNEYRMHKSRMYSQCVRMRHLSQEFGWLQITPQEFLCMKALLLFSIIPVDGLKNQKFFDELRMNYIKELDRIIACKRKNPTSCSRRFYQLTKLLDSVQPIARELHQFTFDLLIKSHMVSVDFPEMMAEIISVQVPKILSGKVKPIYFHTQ

ERK1/2 = assay: ERK phosphorylation in MLO-Y4 cells (Western blot); type: cell-based; conditions: for effect of inhibitor on induction of ERK phosphorylation by E2 or DHT: inhibitor 25 min, then 5 min E2 or DHT
Description: Western blot analysis. The phosphorylation status of ERK1/2 was analyzed by immunoblotting using a mouse monoclonal antibody recognizing tyrosine phosphorylated ERK1/2, or a rabbit polyclonal antibody recognizing total ERK1/2, followed by incubation with either an anti-mouse or an anti-rabbit antibody conjugated with horseradish peroxidase (Santa Cruz Biotechnology).

[2] = system: osteocytic cell line MLO-Y4; assay: Apoptosis of MLO-Y4 osteocytic cells (trypan blue); type: cell-based
ERβ [3] = molecular target: T2, ERβ (Homo sapiens, UniProt Q92731); assay: Etoposide-induced apoptosis in HeLa cells transfected with ERβ
T2 sequence (Q92731 whole entry, species assumed): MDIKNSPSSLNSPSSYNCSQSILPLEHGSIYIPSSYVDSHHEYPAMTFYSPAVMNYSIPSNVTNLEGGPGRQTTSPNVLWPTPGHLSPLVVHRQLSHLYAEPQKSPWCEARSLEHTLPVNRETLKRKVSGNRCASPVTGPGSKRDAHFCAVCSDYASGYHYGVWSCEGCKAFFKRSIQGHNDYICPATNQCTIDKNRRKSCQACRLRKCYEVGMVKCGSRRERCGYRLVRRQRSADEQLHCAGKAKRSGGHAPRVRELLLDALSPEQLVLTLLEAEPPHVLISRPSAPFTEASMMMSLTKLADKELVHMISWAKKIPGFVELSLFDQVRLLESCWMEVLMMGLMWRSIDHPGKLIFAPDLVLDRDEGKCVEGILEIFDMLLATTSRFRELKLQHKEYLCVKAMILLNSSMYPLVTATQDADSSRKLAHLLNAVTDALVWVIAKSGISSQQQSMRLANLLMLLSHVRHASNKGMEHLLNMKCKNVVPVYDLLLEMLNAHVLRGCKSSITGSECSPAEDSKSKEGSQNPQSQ

[4] = system: HeLa cells transfected with the vector without receptor (empty vector, ev); assay: Etoposide-induced apoptosis in HeLa cells transfected with empty vector; conditions: 10^−12M to 10^−8 M
[5] = system: embryonic fibroblasts derived from Src−/− mice; assay: Apoptosis in embryonic fibroblasts from Src−/− mice; type: cell-based; conditions: ER- and AR-expressing, also lack yes and Fyn
Description: Cell lysates were obtained and proteins were analyzed by Western blot analysis using anti-ERK1/2 or anti-phospho-ERK1/2 (p-ERK1/2) antibodies. […] After 30 min, etoposide was added and apoptosis was assayed 6 hours later as in FIG. 1B. […] RT-PCR was performed as described in the experimental procedures. C-E. HeLa cells were transfected with Nuc-EGFP and with expression vectors encoding the full length ERα or its E domain, or the AR alone (C, left panel) or together with a dn MEK (C, right panel); a Src mutant lacking the kinase activity (Src K^−), a Src mutant lacking the SH2 domain (Src ΔSH2), or a Src mutant lacking the SH3 domain (Src ΔSH3) (D); or with ERα together with wt Shc, or the dn Shc mutants Y239F/Y240F/Y317F (Shc FFF), Y317F (Shc YYF) or Y239F/Y240F (Shc FFY) (E). Bars represent means±SD of triplicate determinations. *p<0.05 versus cells cultured without steroids, by ANOVA.
Quantification of apoptotic cells in vitro. Apoptotic cells were quantified either by trypan blue staining or by direct visualization of changes in nuclear morphology (in the case of transfected HeLa cells), as previously described (Plotkin,L. et al. (1999). J.
RT-PCR analysis of the ERs and AR in embryonic fibroblasts. […]

ERβ [6] = molecular target: T2, ERβ; assay: ERE-luc transcription in HeLa cells transfected with ERβ; type: cell-based; parameters: expressed in transfected cells; host or cells: HeLa; conditions: ERβ carrying HeLa cells, 10^−8 M E2
Description: (§1) A. HeLa cells were transiently transfected with the ERα expression vector alone or together with a vector carrying a fusion of the α-II peptide with the GAL4 DNA binding domain driven by the SV40 promoter. In addition, cells were transfected with ERE-luc or IL-6-luc for the transcription studies; or with EGFP-nuc for the apoptosis experiments. […] B. HeLa cells were transfected with ERα or ERβ alone or together with expression vectors carrying 2X293 or 2XF6 peptides. […] C. HeLa cells were transfected with a vector carrying the GRIP peptide alone or together with ERα.
(§2) DNA constructs. […] Bio. […] The sequence for peptide αII is […] (SEQ ID NO.: 1). […] (SEQ ID NO.: 3). The sequence for GRIP is […] […] […] (SEQ ID NO.: 4). […] The forward primer contained the restriction site for SalI and the ERα Kozak sequence and the reverse primer contained the BamH1 restriction site. Amplified PCR products were subcloned into the SalI/BamH1 restriction site of pCMV.
(§3) Transient transfections. HeLa cells were plated at 5×10^4/cm^2 and after 16-24 hours were transfected with a total amount of 3 μg of DNA using Lipofectamine (Life Technologies Inc). Following a 4-6 hours of incubation, the transfection mix was replaced with fresh medium containing 10% charcoal-stripped serum and treatments were initiated.

ERβ [7] = molecular target: T2, ERβ; assay: IL-6-luc transcription in HeLa cells transfected with ERβ; type: cell-based; parameters: expressed in transfected cells; host or cells: HeLa; conditions: ERβ carrying HeLa cells, 10^−8 M E2
Description: as §1, §2, §3

ERα = molecular target: T3, ERα (Homo sapiens, UniProt P03372); assay: Etoposide-induced apoptosis in HeLa cells transfected with ERα; conditions: peptide co-transfected, 10^−8 M E2
T3 sequence (P03372 1-595): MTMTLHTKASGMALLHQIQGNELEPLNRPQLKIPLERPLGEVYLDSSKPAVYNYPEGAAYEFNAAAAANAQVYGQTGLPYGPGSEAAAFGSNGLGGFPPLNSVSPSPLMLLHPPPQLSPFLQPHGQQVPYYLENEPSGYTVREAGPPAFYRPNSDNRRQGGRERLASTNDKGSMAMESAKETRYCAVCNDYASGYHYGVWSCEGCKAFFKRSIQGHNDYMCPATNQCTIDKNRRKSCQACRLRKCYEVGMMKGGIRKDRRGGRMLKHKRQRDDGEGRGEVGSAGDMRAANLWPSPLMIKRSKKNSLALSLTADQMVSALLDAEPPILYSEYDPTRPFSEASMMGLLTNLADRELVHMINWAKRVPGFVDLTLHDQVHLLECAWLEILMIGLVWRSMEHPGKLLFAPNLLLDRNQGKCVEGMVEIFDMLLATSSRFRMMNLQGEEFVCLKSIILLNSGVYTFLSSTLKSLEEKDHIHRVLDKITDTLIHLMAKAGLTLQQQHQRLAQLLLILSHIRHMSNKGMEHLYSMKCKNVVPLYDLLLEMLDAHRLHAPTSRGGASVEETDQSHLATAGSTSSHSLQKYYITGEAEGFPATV

C[C@]12CC[C@@H]3c4ccc(O)cc4C[C@@H](CCCCCCCCC[S+]([O-])CCCC(F)(F)C(F)(F)F)[C@H]3[C@@H]1CC[C@@H]2O (some centres unmarked) [ICI 182,780]
effect of antagonist on the anti-apoptotic effect of DHT ([1]; antagonist pre-treatment 30 min, 10^−8 M DHT, etoposide): blocked | effect of antagonist on the anti-apoptotic effect of E2 ([1]; antagonist pre-treatment 30 min, 10^−8 M E2, etoposide): blocked | effect of antagonist/inhibitor on the anti-apoptotic effect of E2 or DHT (AR): abrogated

N#CC(=C(/N)Sc1ccccc1N)/C(C#N)=C(/N)Sc1ccccc1N [UO 126]
effect of inhibitor on induction of ERK phosphorylation by E2 or DHT (ERK1/2): blocked

C[C@]12CCC(=O)C[C@@H]1CC[C@@H]1[C@@H]2CC[C@]2(C)[C@@H](O)CC[C@@H]12 [DHT, 5β-dihydrotestosterone]
prevention of apoptosis induced by etoposide, dexamethasone or TNFα ([2]; 10^−8 M steroid): prevented apoptosis | dose-dependent inhibition of etoposide-induced apoptosis compared with calvaria cells ([2]; not shown): identical results | prevention of etoposide-induced apoptosis (ERβ [3]; HeLa transfected with ERβ): prevented apoptosis in a dose-dependent manner | effect on etoposide-induced apoptosis [4]: Neither E2 nor DHT (10^−12M to 10^−8 M) had an effect | prevention of apoptosis induced by etoposide, dexamethasone or TNFα ([1]; 10^−8 M steroid): prevented apoptosis | anti-apoptotic effect in Src−/− fibroblasts (unlike Src+/+ wild type controls) [5]: unresponsive | time of maximal effect on phosphorylation of ERKs (ERK1/2; MLO-Y4 cells): 5 min

Cc1ccc(-c2nn(C(C)(C)C)c3ncnc(N)c23)cc1 [PP1]
effect of inhibitor on the anti-apoptotic effect of E2 and DHT ([2]; inhibitor 30 min prior to E2 or DHT, etoposide 6 hours): completely abrogated | effect of inhibitor on induction of ERK phosphorylation by E2 or DHT (ERK1/2): blocked

293: ERβ-specific peptide SSIKDFPNLISLLSR (SEQ ID NO.: 2); two copies expressed fused to GAL4 DNA binding domain (also: two copies fused to GAL4 DNA binding domain) [compound 293]
effect of peptide on E2-induced ERE-Luc transcription (ERβ [6]): blocked | effect of peptide on the anti-apoptotic activity of ERβ (E2) (ERβ [3]; peptide co-transfected, 10^−8 M E2): did block | effect of peptide on E2 effect on IL-6-Luc transcription (ERβ [7]): blocked | effect of peptide on the anti-apoptotic activity of ERα (E2) (ERα): did not have an effect
